Measured values reported in patent publication US4983608A, “N-substituted-4-pyrimidinamines and pyrimidinediamines” (Hoechst-Roussell Pharmaceuticals, Inc., priority 1989, dated 1991).

How the values were obtained:
Assay type in all cases: in vivo
[1] = system: phenyl-para-quinone writhing; assay: phenyl-para-quinone writhing assay in mice (analgesia); conditions: Mus musculus, sc, 20 mg/kg s.c., read-out: Analgesic Activity % Inhibition of Writhing at a Screening Dose of 20 mg/kg s.c.
Method: Exptl. Biol. Med., 95, 729 (1957)]. Presented in Table I is the analgesic effect of some of the compounds of the invention, expressed as the percent decrease in writhing at a given dose (20 mg/kg s.c.).

[2] = system: Scopolamine Induced Memory Deficit; assay: Dark Avoidance Assay (reversal of scopolamine induced memory deficit); conditions: mice, retest after 24 hours
Method: The N-substituted-4-pyrimidinamines and pyrimidinediamines of the present invention are also useful in the treatment of various memory dysfunctions such as Alzheimer's disease.
In this assay, mice are tested for their ability to remember an unpleasant stimulus for a period of 24 hours. A mouse is placed in a chamber that contains a dark compartment; a strong incandescent light drives it to the dark compartment, where an electric shock is administered through metal plates on the floor. The animal is removed from the testing apparatus and tested again, 24 hours later, for the ability to remember the electric shock.
If scopolamine, an anticholinergic that is known to cause memory impairment is administered before an animal's initial exposure to the test chamber, the animal re-enters the dark compartment shortly after being placed in the test chamber 24 hours later. This effect of scopolamine is blocked by an active test compound, resulting in a greater interval before re-entry into the dark compartment.
The results for an active compound are expressed as the percent of a group of animals in which the effect of scopolamine is blocked, as manifested by an increased interval between being placed in the test chamber and re-entering the dark compartment.

[3] = system: phenyl-para-quinone writhing; assay: phenyl-para-quinone writhing assay in mice (analgesia); conditions: 3.9 mg/kg s.c. (standard)

| Compound | inhibition in vivo at 20 mg/kg [1] [%] | also measured |
| --- | --- | --- |
| CN(c1ccnc(Cl)n1)n1cccc1 [2-Chloro-N-methyl-N-(1H-pyrrol-1-yl)-4-pyrimidinamine] | 38 | – |
| N#Cc1cncnc1Nn1ccc2ccccc21 [5-Cyano-N-(1H-indol-1-yl)-4-pyrimidinamine] | 44 | % of Animals with Scopolamine Induced Memory Deficit Reversed ([2]; 1.25 mg/kg s.c. by body weight): 27% |
| CCCN(c1ncncc1C#N)n1ccc2ccccc21 [5-Cyano-N-(1H-indol-1-yl)-N-propyl-4-pyrimidinamine] | 75 | – |
| CCCN(c1cc(Cl)ncn1)n1ccc2ccccc21 [6-Chloro-N-(1H-indol-1-yl)-N-propyl-4-pyrimidinamine] | 40 | % of Animals with Scopolamine Induced Memory Deficit Reversed ([2]; 1.25 mg/kg s.c. by body weight): 47% |
| Clc1cc(Nn2cccc2)ncn1 [6-Chloro-N-(1H-pyrrol-1-yl)-4-pyrimidinamine] | 39 | – |
| Cc1cn(Nc2cc(Cl)ncn2)c2ccccc12 [6-Chloro-N-(3-methyl-1H-indol-1-yl)-4-pyrimidinamine] | 45 | % of Animals with Scopolamine Induced Memory Deficit Reversed ([2]; 1.25 mg/kg s.c. by body weight): 33% |
| CCCN(c1cc(Cl)ncn1)n1cc(C)c2ccccc21 [6-Chloro-N-(3-methyl-1H-indol-1-yl)-N-propyl-4-pyrimidinamine] | 36 | – |
| CN(c1cc(Cl)ncn1)n1cccc1 [6-Chloro-N-methyl-N-(1H-pyrrol-1-yl)-4-pyrimidinamine] | 42 | – |
| CCCN(c1cc(Cl)ncn1)n1cccc1 [6-Chloro-N-propyl-N-(1H-pyrrol-1-yl)-4-pyrimidinamine] | 46 | – |
| Cc1cn(Nc2cc(Nn3cc(C)c4ccccc43)ncn2)c2ccccc12 [N,N'-bis(3-methyl-1H-indol-1-yl)-4,6-pyrimidinediamine] | 33 | – |
| CCCN(c1ccncn1)n1ccc2ccccc21 [N-(1H-Indol-1-yl)-N-propyl-4-pyrimidinamine] | 58 | % of Animals with Scopolamine Induced Memory Deficit Reversed ([2]; 1.25 mg/kg s.c. by body weight): 27% |
| c1ccn(Nc2ccncn2)c1 [N-(1H-pyrrol-1-yl)-4-pyrimidinamine, N-(1H-Pyrrol-1-yl)-4-pyrimidinamine] | 30 | – |
| Cc1cn(Nc2ccncn2)c2ccccc12 [N-(3-methyl-1H-indol-1-yl)-4-pyrimidinamine] | – | % of Animals with Scopolamine Induced Memory Deficit Reversed ([2]; 1.25 mg/kg s.c. by body weight): 20% |
| CCCN(c1ccncn1)n1cc(C)c2ccccc21 [N-(3-methyl-1H-indol-1-yl)-N-propyl-4-pyrimidinamine] | 60 | – |
| c1ccc2c(c1)c1ccccc1n2Nc1ccncn1 [N-(pyrimidin-4-yl)-9H-carbazol-9-amine, N-(Pyrimidin-4-yl)-9H-carbazol-9-amine] | 65 | – |
| CC[C@@H]1C(=O)OC[C@@H]1Cc1cncn1C [Pilocarpine, reference compound] | – | % of Animals with Scopolamine Induced Memory Deficit Reversed ([2]; 5.00 mg/kg s.c. by body weight (standard)): 23% |
| CCC(=O)O[C@](Cc1ccccc1)(c1ccccc1)[C@H](C)CN(C)C [Propoxyphene] | – | Analgesic Activity % Inhibition of Writhing [3]: 50% |
